From patent US20250197384A1, “AZOLE COMPOUND AND ANTIFUNGAL AGENT” (NIHON NOHYAKU CO., LTD., priority 2022, published 2025)
In brackets after ≈: the same amount, converted by molar mass.

What was measured:
Assay type in all cases: cell-based
[1] = test system: Candida albicans NBRC1270; experiment: In vitro anti-Candida activity test; details: Table 22, 35° C. for 24 hr, alamar Blue, minimum concentration showing 80% or more inhibition
Experimental: Candida albicans NBRC1270 was used as the strain. The test fungi were cultured on a Sabouraud dextrose agar slant medium at 35° C. for 24 hr, and then suspended in sterilized saline. The number of cells in this suspension was counted using a hemocytometer, and the same suspension was adjusted to a cell concentration of 1.5×10^5 cells/mL, and this was used as an inoculum. Each compound was dissolved in dimethyl sulfoxide to a predetermined concentration, and diluted 50-fold with 0.165 M MOPS buffered RPMI 1640 liquid medium, and each diluted solution was dispensed into a 96-well microplate by each 100 μL. The inoculum was diluted 50-fold with 0.165 M MOPS buffered RPMI 1640 liquid medium containing 20% alamar Blue™, and the diluted solution was inoculated into the 96-well microplate containing the compound by each 100 μL (final inoculum amount 1.5×10^3 cells/mL). After static culture at 35° C. for 24 hr, the degree of color development of the alamar Blue™ was measured using a microplate reader (O.D. 570-595 nm), and the minimum concentration showing 80% or more inhibition was defined as the minimum inhibitory concentration (MIC).

[2] = test system: Aspergillus fumigatus TIMM0063; experiment: In vitro anti-Aspergillus activity test; details: Table 22, 35° C. for 48 hr, alamar Blue, minimum concentration showing 80% or more inhibition
Experimental: Aspergillus fumigatus TIMM0063 was used as the strain. The test fungi were cultured on a Potato dextrose agar slant medium at 35° C. for 4 days, and then sterilized saline containing 0.1% (v/v) Tween 80 was added to release the conidia. This conidial suspension was filtered through sterile gauze, and the number of conidia was counted using a hemocytometer. The same solution was adjusted to a conidial concentration of 1×10^6 conidia/mL, and this was used as an inoculum. Each compound was dissolved in dimethyl sulfoxide to a predetermined concentration, and diluted 50-fold with 0.165 M MOPS buffered RPMI 1640 liquid medium, and each diluted solution was dispensed into a 96-well microplate by each 100 μL. The inoculum was diluted 50-fold with 0.165 M MOPS buffered RPMI 1640 liquid medium containing 20% alamar Blue™, and the diluted solution was inoculated into the 96-well microplate containing the compound by each 100 μL (final inoculum amount 1.0×10^4 conidia/mL). After static culture at 35° C. for 48 hr, the degree of color development of the alamar Blue™ was measured using a microplate reader (O.D. 570-595 nm), and the minimum concentration showing 80% or more inhibition was defined as the minimum inhibitory concentration (MIC).

[3] = test system: Trichophyton mentagrophytes TIMM2789; experiment: In vitro anti-tinea fungus activity test (T. mentagrophytes); details: Table 22, 27° C. for 3 days, alamar Blue, minimum concentration showing 80% or more inhibition
Experimental: (§1) Trichophyton rubrum NBRC6203 and Trichophyton mentagrophytes TIMM2789 were used as the strains. The test fungi were cultured on a Sabouraud dextrose agar slant medium at 27° C. for 10-13 days, and then suspended in sterilized saline. The number of cells in this suspension was counted using a hemocytometer, and the same suspension was adjusted to a cell concentration of 2×10^6 conidia/mL, and this was used as an inoculum. Each compound was dissolved in dimethyl sulfoxide to a predetermined concentration, and diluted 50-fold with 0.165 M MOPS buffered RPMI 1640 liquid medium, and each diluted solution was dispensed into a 96-well microplate by each 100 μL. The inoculum was diluted 50-fold with 0.165 M MOPS buffered RPMI 1640 liquid medium containing 20% alamar Blue™, and the diluted solution was inoculated into the 96-well microplate containing the compound by each 100 μL (final inoculum amount 2×10^4 conidia/mL). After static culture at 27° C. for 3 days (Trichophyton mentagrophytes) or for 5 days (Trichophyton rubrum), the degree of color development of the alamar Blue™ was measured using a microplate reader (O.D. 570-595 nm), and the minimum concentration showing 80% or more inhibition was defined as the minimum inhibitory concentration (MIC).

[4] = test system: Trichophyton rubrum NBRC6203; experiment: In vitro anti-tinea fungus activity test (T. rubrum); details: Table 22, 27° C. for 5 days, alamar Blue, minimum concentration showing 80% or more inhibition
Experimental: as §1

`CO/N=C/c1cnc(C2CS/C(=C(/C#N)n3ccnc3)S2)c(Cl)c1` (stereo not shown) [compound 24] was tested, and the “minimum inhibitory concentration against various fungi (MIC) C. albicans” value [1] was 2.5 ng/mL (≈ 6.62 nM), the “minimum inhibitory concentration against various fungi (MIC) A. fumigatus” value [2] was 2.5 ng/mL (≈ 6.62 nM) and the “minimum inhibitory concentration against various fungi (MIC) T. mentagrophytes” value [3] was at most 1 ng/mL. The “minimum inhibitory concentration against various fungi (MIC) T. rubrum” value [4] was at most 1 ng/mL.
